Reference: patent US8343983B2, “Substituted pyrazolo-pyrimidine compounds” (ArQule, Inc., priority 2009, dated 2013)
Read-outs that look alike come from different tables or passages of the source.

Test system: cancer cells
Assay: MTS assay: inhibition of cell growth (formazan absorbance at 492 nm after 72 hours with test compound)
Assay type: cell-based
Conditions: inhibition class
Summary of the method: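 DMEM with 1% FBS; cells seeded at 3000/well and grown 18 h at 37 °C, then exposed to compound for 72 h and to MTS/PMS for 4 h. IC50 is the concentration giving a 50% absorbance drop; grades are % inhibition bands.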

[1] = Homo sapiens, DLD-1 cells, read-out: DLD-1, MTS 72 hours at 10 uM
[2] = Homo sapiens, KATO III cells, read-out: KATO III, MTS 72 hours at 10 uM
[3] = Homo sapiens, MDA-MB-231 cells, read-out: MDA-MB-231, MTS 72 hours at 10 uM
[4] = Homo sapiens, NCI-H1299 cells, read-out: NCI-H1299, MTS 72 hours at 10 uM
[5] = Homo sapiens, PC-3 cells, read-out: PC-3, MTS 72 hours at 10 uM
[6] = PACA-2 cells, read-out: PACA-2, MTS 72 hours at 10 uM

SMILES	inhibition at 10 µM [1]	inhibition at 10 µM [2]	inhibition at 10 µM [3]	inhibition at 10 µM [4]	inhibition at 10 µM [5]	inhibition at 10 µM [6]
COc1ccc(CN2CCc3n[nH]c4nc(Nc5ccc(N6CCN(C(=O)OCc7ccccc7)CC6)cc5)nc2c34)cc1 [Compound 119, benzyl 4-(4-{[6-(4-methoxybenzyl)-2,6,7,8-tetrahydro-1,2,3,5,6-pentaazaacenaphthylen-4-yl]amino}phenyl)piperazine-1-carboxylate]	> 79%	> 79%	> 79%	50 to 79%	50 to 79%	50 to 79%
COc1ccc(CN2CCc3n[nH]c4nc(Nc5ccc(N6CCN(C)CC6)cc5)nc2c34)cc1 [Compound 120, 6-(4-methoxybenzyl)-N-[4-(4-methylpiperazin-1-yl)phenyl]-2,6,7,8-tetrahydro-1,2,3,5,6-pentaazaacenaphthylen-4-amine]	> 79%	> 79%	> 79%	50 to 79%	> 79%	> 79%
c1cncc(CNc2nc3c4c(n[nH]c4n2)CCN3)c1 [Compound 121, N-(pyridin-3-ylmethyl)-2,6,7,8-tetrahydro-1,2,3,5,6-pentaazaacenaphthylen-4-amine]	< 50%	< 50%	< 50%	< 50%	< 50%	< 50%
c1cc(N2CCN(c3nc4c5c(n[nH]c5n3)CCN4)CC2)ccn1 [Compound 122, 4-(4-pyridin-4-ylpiperazin-1-yl)-2,6,7,8-tetrahydro-1,2,3,5,6-pentaazaacenaphthylene]	< 50%	< 50%	< 50%	< 50%	< 50%	< 50%
C1CCC(Nc2nc3c4c(n[nH]c4n2)CCN3)CC1 [Compound 123, N-cyclohexyl-2,6,7,8-tetrahydro-1,2,3,5,6-pentaazaacenaphthylen-4-amine]	< 50%	< 50%	< 50%	< 50%	< 50%	< 50%
Fc1ccc(CCNc2nc3c4c(n[nH]c4n2)CCN3)cc1 [Compound 124, N-[2-(4-fluorophenyl)ethyl]-2,6,7,8-tetrahydro-1,2,3,5,6-pentaazaacenaphthylen-4-amine]	< 50%	< 50%	< 50%	< 50%	< 50%	50 to 79%
C1Cc2n[nH]c3nc(N4CCOCC4)nc(c23)N1 [Compound 125, 4-morpholin-4-yl-2,6,7,8-tetrahydro-1,2,3,5,6-pentaazaacenaphthylene]	< 50%	< 50%	< 50%	< 50%	< 50%	< 50%
CN1CCC(Nc2nc3c4c(n[nH]c4n2)CCN3)CC1 [Compound 126, N-(1-methylpiperidin-4-yl)-2,6,7,8-tetrahydro-1,2,3,5,6-pentaazaacenaphthylen-4-amine]	< 50%	< 50%	< 50%	< 50%	< 50%	< 50%
Fc1cccc(CNc2nc3c4c(n[nH]c4n2)CCN3)c1 [Compound 127, N-(3-fluorobenzyl)-2,6,7,8-tetrahydro-1,2,3,5,6-pentaazaacenaphthylen-4-amine]	> 79%	> 79%	> 79%	50 to 79%	> 79%	> 79%
c1ccc(CCNc2nc3c4c(n[nH]c4n2)CCN3)cc1 [Compound 128, N-(2-phenylethyl)-2,6,7,8-tetrahydro-1,2,3,5,6-pentaazaacenaphthylen-4-amine]	> 79%	> 79%	> 79%	> 79%	> 79%	> 79%
COc1ccc(CN2CCc3nn(Cc4ccccc4)c4nc(SC)nc2c34)cc1 [Compound 129, 2-benzyl-6-(4-methoxybenzyl)-4-(methylsulfanyl)-2,6,7,8-tetrahydro-1,2,3,5,6-pentaazaacenaphthylene]	< 50%	< 50%	< 50%	< 50%	< 50%	< 50%
COc1ccc(CN2CCc3nn(C)c4nc(SC)nc2c34)cc1 [Compound 130, 6-(4-methoxybenzyl)-2-methyl-4-(methylsulfanyl)-2,6,7,8-tetrahydro-1,2,3,5,6-pentaazaacenaphthylene]	< 50%	< 50%	< 50%	< 50%	< 50%	50 to 79%
CSc1nc2c3c(nn(Cc4ccccc4)c3n1)CCN2Cc1ccccc1 [Compound 133, 2,6-dibenzyl-4-(methylsulfanyl)-2,6,7,8-tetrahydro-1,2,3,5,6-pentaazaacenaphthylene]	> 79%	> 79%	> 79%	> 79%	> 79%	> 79%
CSc1nc2c3c(nn(C)c3n1)CCN2Cc1ccccc1 [Compound 171, 6-benzyl-2-methyl-4-(methylsulfanyl)-2,6,7,8-tetrahydro-1,2,3,5,6-pentaazaacenaphthylene]	> 79%	> 79%	> 79%	50 to 79%	> 79%	> 79%
COC(=O)Cn1nc2c3c(nc(SC)nc31)N(Cc1ccccc1)CC2 [Compound 172, methyl [6-benzyl-4-(methylsulfanyl)-7,8-dihydro-1,2,3,5,6-pentaazaacenaphthylen-2(6H)-yl]acetate]	50 to 79%	< 50%	< 50%	< 50%	> 79%	> 79%
c1ccc(CNc2nc3c4c(n[nH]c4n2)CCN3c2ccccc2)cc1 [Compound 208, N-benzyl-6-phenyl-2,6,7,8-tetrahydro-1,2,3,5,6-pentaazaacenaphthylen-4-amine]	< 50%	< 50%	< 50%	< 50%	< 50%	< 50%
Clc1ccccc1CNc1nc2c3c(n[nH]c3n1)CCN2c1ccccc1 [Compound 209, N-(2-chlorobenzyl)-6-phenyl-2,6,7,8-tetrahydro-1,2,3,5,6-pentaazaacenaphthylen-4-amine]	< 50%	50 to 79%	< 50%	< 50%	< 50%	< 50%
c1ccc(N2CCc3n[nH]c4nc(N5CCN(c6ccncc6)CC5)nc2c34)cc1 [Compound 210, 6-phenyl-4-(4-pyridin-4-ylpiperazin-1-yl)-2,6,7,8-tetrahydro-1,2,3,5,6-pentaazaacenaphthylene]	> 79%	> 79%	> 79%	> 79%	> 79%	> 79%
c1ccc(N2CCc3n[nH]c4nc(NC5CCCCC5)nc2c34)cc1 [Compound 211, N-cyclohexyl-6-phenyl-2,6,7,8-tetrahydro-1,2,3,5,6-pentaazaacenaphthylen-4-amine]	< 50%	< 50%	< 50%	< 50%	< 50%	< 50%
c1ccc(OCCNc2nc3c4c(n[nH]c4n2)CCN3c2ccccc2)cc1 [Compound 212, N-(4-phenoxyethyl)-6-phenyl-2,6,7,8-tetrahydro-1,2,3,5,6-pentaazaacenaphthylen-4-amine]	< 50%	< 50%	< 50%	< 50%	< 50%	< 50%
Clc1ccc(CNc2nc3c4c(n[nH]c4n2)CCN3c2ccccc2)cc1 [Compound 213, N-(4-chlorobenzyl)-6-phenyl-2,6,7,8-tetrahydro-1,2,3,5,6-pentaazaacenaphthylen-4-amine]	< 50%	< 50%	< 50%	50 to 79%	< 50%	50 to 79%
c1ccc(N2CCc3n[nH]c4nc(NCc5cccnc5)nc2c34)cc1 [Compound 214, 6-phenyl-N-(pyridin-3-ylmethyl)-2,6,7,8-tetrahydro-1,2,3,5,6-pentaazaacenaphthylen-4-amine]	50 to 79%	50 to 79%	< 50%	50 to 79%	< 50%	50 to 79%
c1ccc(N2CCc3n[nH]c4nc(NCCN5CCOCC5)nc2c34)cc1 [Compound 215, N-(2-morpholin-4-ylethyl)-6-phenyl-2,6,7,8-tetrahydro-1,2,3,5,6-pentaazaacenaphthylen-4-amine]	< 50%	< 50%	< 50%	< 50%	< 50%	< 50%
